According to US20250099420A1, “SMALL MOLECULE MODULATORS OF GPR139 COMPLEX” (University of Florida Research Foundation, Incorporated, priority 2022, published 2025):
Where two headings read alike, the source gives them in different places.

Experiments:
parental HEK cells = test: HEK parental Agonist Counterscreen Assay (non-transfected cells); format: cell-based; conditions: for Averaged Max % Response (±St. Dev.): activity relative to known control
Source text: The high control for the agonist counterscreen was Forskolin not acetylcholine.

GPR139 = target: T1, GPR139 (Homo sapiens, UniProt Q6DWJ6); test: GPR139 Agonist titration / agonist counterscreen assay (calcium detection, HEK-GPR139 cells); format: cell-based; parameters: expressed in transfected cells; host or cells: HEK Aequorin cells, Maxcyte transient transfection; conditions: GPR139 Agonist Activity; for Averaged Max % Response (±St. Dev.): activity relative to known control; for EC50: read-out: EC50
T1 sequence (Q6DWJ6 1-353): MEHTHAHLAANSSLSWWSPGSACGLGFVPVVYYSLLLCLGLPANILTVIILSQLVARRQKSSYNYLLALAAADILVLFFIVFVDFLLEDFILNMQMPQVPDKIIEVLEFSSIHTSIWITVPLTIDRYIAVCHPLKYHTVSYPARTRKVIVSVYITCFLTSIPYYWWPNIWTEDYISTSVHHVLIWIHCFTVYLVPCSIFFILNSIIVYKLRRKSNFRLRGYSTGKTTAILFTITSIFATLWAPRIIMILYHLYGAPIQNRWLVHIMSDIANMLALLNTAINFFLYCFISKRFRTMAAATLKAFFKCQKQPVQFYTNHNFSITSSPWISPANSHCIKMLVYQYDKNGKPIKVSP
Protocol: GPR activity was assessed using a calcium detection assay. […] Negative control samples were treated with DMSO. […] Intracellular calcium was measured using Calcium 5.

[1] = HEK Agonist Activity section of Table 4 (parental HEK counterscreen)
[2] = values printed in E-notation without unit
[3] = Homo sapiens, HEK293, HEK Agonist Activity section of Table 4 (parental HEK counterscreen)

| Lipophilic Efficiency (logD) (parental HEK cells; HEK Agonist Activity section) | Lipophilic Efficiency (logP) (parental HEK cells; HEK Agonist Activity section) | Averaged Max % Response (±St. Dev.) (GPR139) | Lipophilic Efficiency (logD) (GPR139; based on logD) | Lipophilic Efficiency (logP) (GPR139; based on logP) | Hill Slope (GPR139; fitted dose-response curve) | Efficiency Ligand (GPR139; ligand efficiency) | EC50 (GPR139; [2]) | Efficiency Ligand (GPR139) | Hill Slope (GPR139) | Lipophilic Efficiency (logD) (GPR139) | Lipophilic Efficiency (logP) (GPR139) | EC50 (GPR139; HEK-GPR139 cells) | Lipophilic Efficiency (logD) (parental HEK cells; HEK Agonist Activity) | Lipophilic Efficiency (logP) (parental HEK cells; HEK Agonist Activity) | Structure (SMILES) | EC50 (parental HEK cells; [1]) | Averaged Max % Response (±St. Dev.) (parental HEK cells; HEK Agonist Activity section) | EC50 (parental HEK cells; [3]) | Averaged Max % Response (±St. Dev.) (parental HEK cells; HEK Agonist Activity) | EC50 (parental HEK cells; HEK Agonist Activity, parental non-transfected HEK cells) |
| --- | --- | --- | --- | --- | --- | --- | --- | --- | --- | --- | --- | --- | --- | --- | --- | --- | --- | --- | --- | --- |
| 1.33 | 1.33 | 100.76 ± 18.47% | 3.28 | 3.28 | 1.29 | 0.41 | 156 nM |  |  |  |  |  |  |  | O=C(Cn1cc2c(n1)CCCCC2)NCCCc1ccccc1 [SR-01000088420] | > 14100 nM | 12.56 ± 5.54% |  |  |  |
| 2.37 | 2.37 | 81.02 ± 6.69% |  |  |  |  |  | 0.26 | 1.92 | 3.33 | 3.33 | 1600 nM |  |  | CCCc1nn(CC(=O)NCc2nc3ccccc3n2C)c(=O)c2cc3ccsc3n12 [SR-01000336681] | > 14100 nM | 4.99 ± 7.59% |  |  |  |
|  |  | 91.42 ± 14.52% | 2.69 | 2.69 | 1.13 | 0.32 | 38.7 nM |  |  |  |  |  | 0.13 | 0.13 | O=C(CC(c1ccccc1)c1ccccc1)Oc1coc(CSc2ncccn2)cc1=O [SR-01000020502] |  |  |  | 4.84 ± 4.90% | > 13900 nM |
| 1.47 | 1.47 | 64.98 ± 9.75% | 3.27 | 3.27 | 2.03 | 0.34 | 245 nM |  |  |  |  |  |  |  | Nc1ccc(C(=O)OCC(=O)NC2CCCc3ccccc32)cc1[N+](=O)[O-] (centres unmarked) [SR-01000034627] |  | 2.09 ± 12.58% | > 15300 nM |  |  |
| 1.35 | 1.34 | 85.12 ± 11.10% | 3.36 | 3.36 | 0.80 | 0.40 | 138 nM |  |  |  |  |  |  |  | O=C(Cc1cccc2ccccc12)Nc1nnc(-c2cccs2)o1 [SR-01000012264] | > 14300 nM | 3.88 ± 6.42% |  |  |  |
| 2.64 | 1.58 | 91.59 ± 7.88% | 4.71 | 3.64 | 0.81 | 0.30 | 120 nM |  |  |  |  |  |  |  | CN1CC[C@H](Oc2cc(-c3cn[nH]c3)ccc2NC(=O)N(Cc2ccccc2)C2CC2)C1.O=C(O)C(F)(F)F.O=C(O)C(F)(F)F [SR-00000007518] | > 14100 nM | 23.13 ± 2.30% |  |  |  |

Further lines, the compound ahead of its results:

| Structure (SMILES) | Lipophilic Efficiency (logD) (parental HEK cells; HEK Agonist Activity section) | Lipophilic Efficiency (logP) (parental HEK cells; HEK Agonist Activity section) | Averaged Max % Response (±St. Dev.) (GPR139) | Lipophilic Efficiency (logD) (GPR139; based on logD) | Lipophilic Efficiency (logP) (GPR139; based on logP) | Hill Slope (GPR139; fitted dose-response curve) | Efficiency Ligand (GPR139; ligand efficiency) | EC50 (GPR139; [2]) | Efficiency Ligand (GPR139) | Hill Slope (GPR139) | Lipophilic Efficiency (logD) (GPR139) | Lipophilic Efficiency (logP) (GPR139) | EC50 (GPR139; HEK-GPR139 cells) | Lipophilic Efficiency (logD) (parental HEK cells; HEK Agonist Activity) | Lipophilic Efficiency (logP) (parental HEK cells; HEK Agonist Activity) | EC50 (parental HEK cells; [1]) | Averaged Max % Response (±St. Dev.) (parental HEK cells; HEK Agonist Activity section) | EC50 (parental HEK cells; [3]) | Averaged Max % Response (±St. Dev.) (parental HEK cells; HEK Agonist Activity) | EC50 (parental HEK cells; HEK Agonist Activity, parental non-transfected HEK cells) |
| --- | --- | --- | --- | --- | --- | --- | --- | --- | --- | --- | --- | --- | --- | --- | --- | --- | --- | --- | --- | --- |
| COc1ccc(CCC(=O)Nc2ccc(/C(N)=N/O)cc2)cc1 [SR-01000103876] | 2.61 | 2.60 | 114.46 ± 17.21% | 4.50 | 4.50 | 0.82 | 0.41 | 179 nM |  |  |  |  |  |  |  | > 14100 nM | 1.17 ± 3.96% |  |  |  |
| CCSc1nc2sccn2c(=O)c1C(=O)NC(C)c1ccccc1 (centres unmarked) [SR-01000378352] | 1.53 | 1.53 | 93.30 ± 10.83% |  |  |  |  |  | 0.36 | 1.14 | 2.89 | 2.89 | 616 nM |  |  |  | 8.83 ± 9.35% | > 14100 nM |  |  |
| O=C(O)COc1cc(Br)c(Br)c(Br)c1O [SR-01000028953] | 5.29 | 1.52 | 88.05 ± 4.24% |  |  |  |  |  | 0.54 | 0.80 | 6.30 | 2.53 |  |  |  |  | 1.36 ± 9.86% | > 15300 nM |  |  |
| O=C(O)c1ccccc1C(=O)c1cccc2ccccc12 [SR-01000391835] | 4.05 | 0.66 | 104.57 ± 1.81% | 5.91 | 2.52 | 0.80 | 0.44 | 254 nM |  |  |  |  |  |  |  |  | 10.10 ± 5.45% | > 18300 nM |  |  |
| CS(=O)(=O)c1cccc(C(=O)NCCCN2CCc3ccccc32)c1 [SR-01000387617] | 2.95 | 2.95 | 81.90 ± 12.88% |  |  |  |  |  | 0.35 | 0.75 | 4.28 | 4.28 | 661 nM |  |  |  | 2.04 ± 4.49% | > 14100 nM |  |  |
| O=C(CN1CCN(Cc2ccc(F)cc2Cl)C1=O)NCc1ccccc1Cl [SR-01000125622] | 1.80 | 1.80 | 99.14 ± 16.79% | 3.63 | 3.63 | 0.99 | 0.35 | 208 nM |  |  |  |  |  |  |  |  | −10.20 ± 10.64% | > 14100 nM |  |  |
| O=C(NCc1csc(-c2cccs2)n1)C1CC(Cc2ccc3c(c2)OCO3)=NO1 (centres unmarked) [SR-01000187428] | 1.59 | 1.59 | 99.03 ± 14.80% | 3.43 | 3.43 | 1.55 | 0.32 | 201 nM |  |  |  |  |  |  |  |  | 6.44 ± 5.26% | > 14100 nM |  |  |
| O=C(CN1CCCN(Cc2ccc(F)cc2Cl)C1=O)NC1CCCC1 [SR-01000146446] | 2.71 | 2.71 | 113.08 ± 17.13% |  |  |  |  |  | 0.37 | 0.77 | 4.40 | 4.40 | 289 nM |  |  | > 14100 nM | −2.89 ± 4.65% |  |  |  |
| COc1ccc(CCNC(=O)Nc2ccc(C)cc2)cc1 [SR-01000271555] | 1.38 | 1.38 | 124.00 ± 20.16% | 3.11 | 3.11 | 0.62 | 0.44 | 260 nM |  |  |  |  |  |  |  |  | 14.71 ± 4.12% | > 14100 nM |  |  |
| CC(Oc1ccc(Cl)cc1Cl)C(=O)NNC(=O)c1ccc(F)cc1 (centres unmarked) [SR-01000520452] | 1.26 | 1.13 | 113.17 ± 28.03% | 3.08 | 2.96 | 0.85 | 0.39 | 235 nM |  |  |  |  |  |  |  |  | 1.29 ± 6.31% | > 15700 nM |  |  |
| Cc1[nH]c(=O)[nH]c(=O)c1/C=N\NC(=O)CCc1ccc(OC(C)C)cc1 [SR-01000357697] | 3.76 | 3.76 | 87.67 ± 13.61% |  |  |  |  |  | 0.31 | 1.75 | 4.74 | 4.74 |  |  |  |  | −2.06 ± 7.71% | > 14100 nM |  |  |
| CC1CC(C)CN(C(=O)C2C3C=CC4(CN(Cc5ccccc5Cl)C(=O)C24)O3)C1 (centres unmarked) [SR-01000583192] | 2.09 | 2.09 | 108.22 ± 25.63% | 4.61 | 4.61 | 0.51 | 0.35 | 48.1 nM |  |  |  |  |  |  |  | > 15900 nM | 13.45 ± 13.24% |  |  |  |
| COc1ccc(CCN2CC3=C(C2=O)C(c2ccc(F)c(F)c2)NC(=O)N3)cc1 (centres unmarked) [SR-01000335002] | 3.09 | 3.09 | 86.79 ± 17.90% |  |  |  |  |  | 0.31 | 0.68 | 4.62 | 4.62 | 422 nM |  |  | > 14100 nM | 20.28 ± 3.20% |  |  |  |
